“Also recorded” adds a separate entry of the source.
What was measured:
GPX4 = target: T1, GPX4 (Homo sapiens, UniProt P36969); experiment: GPX4-specific enzymatic activity assay (LC-MS substrate/product, NADPH-coupled); assay type: biochemical
T1 sequence (P36969 1-170 isoform P36969-2): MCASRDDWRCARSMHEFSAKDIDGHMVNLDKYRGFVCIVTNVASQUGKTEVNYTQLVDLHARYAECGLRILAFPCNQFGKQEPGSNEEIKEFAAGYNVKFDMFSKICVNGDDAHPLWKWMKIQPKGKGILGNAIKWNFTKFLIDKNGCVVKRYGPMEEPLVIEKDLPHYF
Excerpt: These x-ray structures enabled further optimization of current inhibitors and the design of novel inhibitors targeting various binding sites on GPX4. Therefore, we applied a strategy of computer-facilitated design, based on MD simulation (Desmond) and Glide docking (Schrödinger Suite), and experimental high-throughput screening of a lead-optimized compound library of 10,000 compounds (FIGS. 6A-6E). All candidates were first evaluated by thermal denaturation assay and microscale thermophoresis (MST) to validate binding to GPX4 (Table 1). Surface plasmon resonance (SPR) and isothermal titration calorimetry (ITC) were then applied to precisely measure their binding kinetics and affinities, while ^1H-^15N heteronuclear single-quantum coherence (HSQC) NMR spectroscopy informed us of binding sites. We optimized two GPX4-specific activity assays to examine enzymatic inhibitory effects of hit compounds—LC-MS-based substrate/product monitoring and an NADPH-coupled assay. […] Some L880 analogues were also synthesized and tested (Table 2).

[1] = target: T2, cellular GPX4 in HT1080 cell lysate (Homo sapiens, UniProt P36969); experiment: NADPH-coupled cellular GPX4-specific activity, HT1080 cell lysate; assay type: biochemical; conditions: 500 μM LOC1886 added to lysate
T2 construct: endogenous in cells; host or cells: HT-1080 (ATCC), whole-cell lysate
T2 sequence (P36969 1-197): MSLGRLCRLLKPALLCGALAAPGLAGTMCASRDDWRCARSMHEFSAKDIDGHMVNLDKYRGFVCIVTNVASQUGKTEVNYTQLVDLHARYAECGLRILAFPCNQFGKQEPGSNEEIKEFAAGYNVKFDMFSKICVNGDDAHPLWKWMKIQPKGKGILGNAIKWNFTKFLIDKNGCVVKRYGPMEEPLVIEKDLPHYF
Experimental: We applied a NADPH-coupled cellular GPX4 enzymatic activity assay as previously reported with minor modifications (Roveri et al. 1994). Oxidized glutathione, generated by GPX4 during reducing its specific phospholipid hydroperoxides substrate, was reduced by Glutathione Reductase at the expense of NADPH, the decrease in the characteristic absorbance of which at 340 nm was monitored and quantified as GPX4 activity. […] The concentration of protein in the lysate was determined using BCA assay kit using BSA as standards. […] Absorbance of NADPH at 340 nm was determined kinetically at 1 min interval over the 20 min time. […] Results were quantified using GraphPad Prism 9.
We applied a NADPH-coupled cellular GPX4 enzymatic activity assay as previously reported (Roveri et al. 1994). Oxidized glutathione, generated by GPX4 during reducing its specific phospholipid hydroperoxides substrate, was reduced by Glutathione Reductase at the expense of NADPH, the decrease in the characteristic absorbance of which at 340 nm was monitored and quantified as GPX4 activity. […] The concentration of protein in the lysate was determined using BCA assay kit using BSA as standards. […]

With `COc1cccc2[nH]c(C(=O)n3ccnc3)cc12` [LOC1886] the GPX4 enzymatic assay (GPX4) was “suppression of its enzymatic activity; also recorded: positive” and the “capability of cellular GPX4 to reduce phospholipid hydroperoxides” value [1] was “inhibited the capability of cellular GPX4”.

— US20230167058A1, “GPX4 COMPOUNDS AND COMPOSITIONS AND METHODS OF TREATMENT USING SAME” (THE TRUSTEES OF COLUMBIA UNIVERSITY IN THE CITY OF NEW YORK, priority 2020, published 2023)
